Assay results as given in PubChem BioAssay AID2060505 (Molecular Pharmacology Branch, DTP, NCI, 2025).

Tested on: 633275-114-R-J1-PDC complex spheroids, viability
Assay: Anticancer human tumor 633275-114-R-J1-PDC patient-derived endometrial adenocarcinoma cell line growth inhibition [GQUAD]
Conditions: for IC50: curve of first compound; for viability, T/C: stronger effect = lower value; active = viability on the fitted dose curve at most 10% of control; inactive = the rest
In short: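 Viability of tumor cells grown as complex spheroids with endothelial and stromal cells, exposed to drug combinations. Top concentration at or near clinical Cmax (else 10 microM), diluted in half-log increments.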

[1] = second compound 0.0316 µM, first compound 0.0316 µM
[2] = second compound 0.0316 µM, first compound 0.1 µM
[3] = second compound 0.0316 µM, first compound 0.316 µM
[4] = second compound 0.0316 µM, first compound 1 µM
[5] = second compound 0.0316 µM, first compound 3.16 µM
[6] = second compound 0.0316 µM, first compound 10 µM
[7] = second compound 0.1 µM, first compound 0.0316 µM
[8] = second compound 0.1 µM, first compound 0.1 µM
[9] = second compound 0.1 µM, first compound 0.316 µM
[10] = second compound 0.1 µM, first compound 1 µM
[11] = second compound 0.1 µM, first compound 3.16 µM
[12] = second compound 0.1 µM, first compound 10 µM
[13] = second compound 0.316 µM, first compound 0.0316 µM
[14] = second compound 0.316 µM, first compound 0.1 µM
[15] = second compound 0.316 µM, first compound 0.316 µM
[16] = second compound 0.316 µM, first compound 1 µM
[17] = second compound 0.316 µM, first compound 3.16 µM
[18] = second compound 0.316 µM, first compound 10 µM
[19] = second compound 1 µM, first compound 0.0316 µM
[20] = second compound 1 µM, first compound 0.1 µM
[21] = second compound 1 µM, first compound 0.316 µM
[22] = second compound 1 µM, first compound 1 µM
[23] = second compound 1 µM, first compound 3.16 µM
[24] = second compound 1 µM, first compound 10 µM
[25] = second compound 3.16 µM, first compound 0.0316 µM
[26] = second compound 3.16 µM, first compound 0.1 µM
[27] = second compound 3.16 µM, first compound 0.316 µM
[28] = second compound 3.16 µM, first compound 1 µM
[29] = second compound 3.16 µM, first compound 3.16 µM
[30] = second compound 3.16 µM, first compound 10 µM
[31] = second compound 10 µM, first compound 0.0316 µM
[32] = second compound 10 µM, first compound 0.1 µM
[33] = second compound 10 µM, first compound 0.316 µM
[34] = second compound 10 µM, first compound 1 µM
[35] = second compound 10 µM, first compound 3.16 µM
[36] = second compound 10 µM, first compound 10 µM
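Note: spheroids exposed to the agents for seven days.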
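Throughout, for viability, T/C: percent of DMSO vehicle control viability which is 100%.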

CC(=O)O[C@H]1C(=O)[C@@]2(C)[C@H]([C@H](OC(=O)c3ccccc3)[C@]3(O)C[C@H](OC(=O)[C@H](O)[C@@H](NC(=O)c4ccccc4)c4ccccc4)C(C)=C1C3(C)C)[C@]1(OC(C)=O)CO[C@@H]1C[C@@H]2O + CN(C)c1ccc(Nc2c3ccc(NC(=O)CCN4CCCC4)cc3nc3cc(NC(=O)CCN4CCCC4)ccc23)cc1
inactive: viability, T/C [1] 48.9% | viability, T/C [2] 26.1% | viability, T/C [3] 18.4% | viability, T/C [4] 22.6% | viability, T/C [5] 20.9% | viability, T/C [6] 22.7% | viability, T/C [7] 48.3% | viability, T/C [8] 27.3% | viability, T/C [9] 21.6% | viability, T/C [10] 18.9% | viability, T/C [11] 20.5% | viability, T/C [12] 23.5% | viability, T/C [13] 46.4% | viability, T/C [14] 23.6% | viability, T/C [15] 21.2% | viability, T/C [16] 19.1% | viability, T/C [17] 20.7% | viability, T/C [18] 20.4% | viability, T/C [19] 45.9% | viability, T/C [20] 25.5% | viability, T/C [21] 17.5% | viability, T/C [22] 18.8% | viability, T/C [23] 22.4% | viability, T/C [24] 20.8% | viability, T/C [25] 41.4% | viability, T/C [26] 22.8% | viability, T/C [27] 20.4% | viability, T/C [28] 21.3% | viability, T/C [29] 19.6% | viability, T/C [30] 19.8% | viability, T/C [31] 23.8% | viability, T/C [32] 15.3% | viability, T/C [33] 13.8% | viability, T/C [34] 11.8% | viability, T/C [35] 15.2% | viability, T/C [36] 12.9%
< 0.0316 µM: IC50 (second compound 0.0316 µM) | IC50 (second compound 0.1 µM) | IC50 (second compound 0.316 µM) | IC50 (second compound 1 µM) | IC50 (second compound 3.16 µM) | IC50 (second compound 10 µM)

CCCS(=O)(=O)Nc1ccc(F)c(C(=O)c2c[nH]c3ncc(-c4ccc(Cl)cc4)cc23)c1F + CN(C)c1ccc(Nc2c3ccc(NC(=O)CCN4CCCC4)cc3nc3cc(NC(=O)CCN4CCCC4)ccc23)cc1
< 0.0316 µM: IC50 (second compound 10 µM)
9.53 µM: IC50 (second compound 0.316 µM)
5.04 µM: IC50 (second compound 3.16 µM)
9.28 µM: IC50 (second compound 0.1 µM)
8.89 µM: IC50 (second compound 0.0316 µM)
8.32 µM: IC50 (second compound 1 µM)
inactive: viability, T/C [1] 93.3% | viability, T/C [2] 97.6% | viability, T/C [3] 98.5% | viability, T/C [4] 100% | viability, T/C [5] 91% | viability, T/C [6] 45.2% | viability, T/C [7] 90.6% | viability, T/C [8] 109% | viability, T/C [9] 103% | viability, T/C [10] 103% | viability, T/C [11] 91.4% | viability, T/C [12] 46.8% | viability, T/C [13] 100% | viability, T/C [14] 108% | viability, T/C [15] 103% | viability, T/C [16] 111% | viability, T/C [17] 85.8% | viability, T/C [18] 48.4% | viability, T/C [19] 97.1% | viability, T/C [20] 106% | viability, T/C [21] 103% | viability, T/C [22] 99.1% | viability, T/C [23] 83.9% | viability, T/C [24] 43.4% | viability, T/C [25] 92.5% | viability, T/C [26] 89% | viability, T/C [27] 94.8% | viability, T/C [28] 94.3% | viability, T/C [29] 69% | viability, T/C [30] 22.3% | viability, T/C [31] 33.7% | viability, T/C [32] 31.8% | viability, T/C [33] 31.6% | viability, T/C [34] 33.6% | viability, T/C [35] 25.1% | viability, T/C [36] 7.58%

CC(=O)O[C@H]1C(=O)[C@@]2(C)[C@H]([C@H](OC(=O)c3ccccc3)[C@]3(O)C[C@H](OC(=O)[C@H](O)[C@@H](NC(=O)c4ccccc4)c4ccccc4)C(C)=C1C3(C)C)[C@]1(OC(C)=O)CO[C@@H]1C[C@@H]2O + Cc1cnc(CNC(=O)c2c(=O)c3ccc(N4CCCN(C)CC4)nc3n3c2sc2ccccc23)cn1
inactive: viability, T/C [1] 43.8% | viability, T/C [2] 30.5% | viability, T/C [3] 27.4% | viability, T/C [4] 25.1% | viability, T/C [5] 24.9% | viability, T/C [6] 25.6% | viability, T/C [7] 42.3% | viability, T/C [8] 37.3% | viability, T/C [9] 32.8% | viability, T/C [10] 35.2% | viability, T/C [11] 33.9% | viability, T/C [12] 34.1% | viability, T/C [13] 43.5% | viability, T/C [14] 39.3% | viability, T/C [15] 41.7% | viability, T/C [16] 38.2% | viability, T/C [17] 35.8% | viability, T/C [18] 35.3% | viability, T/C [19] 38.5% | viability, T/C [20] 37.4% | viability, T/C [21] 39.3% | viability, T/C [22] 43.2% | viability, T/C [23] 35.1% | viability, T/C [24] 36.2% | viability, T/C [25] 39% | viability, T/C [26] 35% | viability, T/C [27] 35.8% | viability, T/C [28] 39.7% | viability, T/C [29] 35.8% | viability, T/C [30] 32.6% | viability, T/C [31] 31.1% | viability, T/C [32] 28.7% | viability, T/C [33] 27.5% | viability, T/C [34] 31.7% | viability, T/C [35] 32.4% | viability, T/C [36] 30.8%
< 0.0316 µM: IC50 (second compound 0.0316 µM) | IC50 (second compound 0.1 µM) | IC50 (second compound 0.316 µM) | IC50 (second compound 1 µM) | IC50 (second compound 3.16 µM) | IC50 (second compound 10 µM)
